Here are results for eleven molecules from patent US20250361214A1, “TRIAZINE LIPIDS, LIPID SYNTHESIS, AND METHODS FOR INHIBITING CANONICAL NFKB TRANSCRIPTIONAL ACTIVITY” (University of Kentucky Research Foundation, priority 2022, published 2025).

Structures are written as SMILES. Read-outs that look alike come from different tables or passages of the source. Some results are limits rather than exact numbers.

A short description of data set [1]: Size and charge determination of nanoparticles (Zetasizer Nano ZS), Example 1. It counts as physicochemical. From the text: Size and Charge Determination.
For data set [2], the system named is bone marrow derived macrophages. The experiment in a line: in vitro. It counts as cell-based. As to the method:
Cell Culture of Bone Marrow-Derived Macrophages. […] After 7 days, the cells were transferred to tissue culture 96 well plates (Corning) at a density of 100,000 in 20 μL of medium and allowed to settle overnight for subsequent assays.
Lactate Dehydrogenase Release (LDH) Toxicity Assay. For determination of cytotoxicity, mature bone marrow-derived macrophages (BMDM) were treated with 20 μL of the lipids (concentrations denoted in figure legend) diluted in 20 mM HEPES buffer, with HEPES buffer as negative control and 10% Triton X-100 as positive control. After 24 hours, the 96 well plates were centrifuged at 200×g for 5 minutes to remove debris and 100 μL of media was transferred to an untreated flat-bottom 96 well plate. Next, 100 μL of LDH reaction reagent purchased from Cayman Chemical (Ann Arbor, MI) was added to each and allowed to sit for 30 minutes at 37° C. Absorbance at 490 and 680 nm were measured using a BioTek Synergy H1 plate reader and the data were processed using Microsoft Excel. Mean values from triplicates are shown for one of two independent experiments.

Data set [3] is described as follows: Differential scanning calorimetry, transition temperature (Tm) of lipids. It counts as physicochemical. The following applies: liposomes of pure lipid, 10 mM in 20 mM HEPES, DSC. How it is done: Differential Scanning calorimetery. The transition temperature (Tm) of the lipids was determined using a multicell differential scanning calorimeter (TA Instruments). Liposomes were made with triazine lipids at a concentration of 10 mM in 20 mM HEPES buffer. These were heated to 60° C. and sonicated until the solution was translucent. For Tm determination, 250 μL of the liposome solution was transferred into reusable hastelloy ampoules while 250 μL of the HEPES solution was transferred to the third ampoule, leaving the reference ampoule empty. […] Data was collected over a range of 10-110° C. at a rate of 2° C. min-1 in a heat-cool-heat cycle. After the run was complete, the CpCalc 2.1 software package was used to convert the raw data into a molar heat capacity and the data from the second heating cycle were processed using Microsoft Excel.
(In general: Differential scanning calorimetry records heat flow against a reference as temperature is scanned.)

In a further data set the test system is canonical NFKB. The experiment in a line: THP-1-Blue NFKB reporter (SEAP) assay. Type of data set: cell-based, human. The conditions noted are these: read-out: IC50, canonical NFKB inhibition.
A short description of data set [4]: Nanoparticle pKa via TNS fluorescence. The conditions noted are these: liposomes, pH 2.5 to 12. Type of data set: physicochemical. As to the method:
Determination of Nanoparticle pKa via TNS Fluorescence. […] The solutions were mixed by pipetting and incubated at room temperature for 10 minutes, before being analysed for fluorescence intensity using a 321 nm excitation and 445 nm emission wavelengths.

Data set [5] deals with BALB/c mice. The experiment in a line: Anti-hAAT antibody titers and IgG subclass ratios. Type of data set: in vivo, mouse. The conditions noted are these: for increase of anti-hAAT titers: 25 μg hAAT protein administered with 1 mM lipid, day 14. How it is done: To assess the presence of antibodies toward hAAT, 50 μL of hAAT (OriGene #RG202082) was plated at 2 μg/mL in carbonate buffer, pH 9.7, on a 96 well high binding plate (Greiner #82050-720) and incubated overnight at 4° C. The next day, the plates were washed with PBS containing 0.1% Tween-20 (PBS-T) and blocked for 1 hour with PBS-C at 37° C. After blocking, serum samples were plated at dilutions ranging from 1:100 to 1:1,000,000 and incubated at 37° C. for 2 hours. Secondary antibody (goat anti-mouse IgG HRP; Invitrogen #16066) diluted 1:2000 was applied for 30 min at 37° C., followed by a 30 min. incubation with tetramethylbenzidine (Rockland). Absorbance at 450 nm was recorded using a BioTek Synergy H1 microplate reader. Reciprocal endpoint titers were determined by plotting A450 values versus known dilutions, calculating the slope of that line, and dividing the slope by two times the average of the blank (no serum) wells.
Anti-hAAT IgG subclass ratios were assessed as described above, using a single 1:100 sample dilution and the following detection antibodies: goat anti-mouse IgG1-HRP (Abcam ab98693) at 1:10,000, IgG2a-HRP (Abcam ab98698) at 1:5000, IgG2b-HRP (Abcam ab98703) at 1:10,000 and IgG3 (Jackson 115-035-209) at 1:5000. Subclass ratios were calculated by dividing the absorbance of each subclass by that of IgG1 for each individual mouse.

In data set [6] the test system is BALB/c mice. In words: In vivo hAAT transfection efficiency, serum ELISA and ALT. The conditions noted are these: LPs (50% cationic lipid, 50% DOPE), 10,000 ng hAAT plasmid DNA i.p., 72 hours. Also noted: species or system mouse. How it is done:
To assess in vivo hAAT transfection efficiency, mice were administered 200 μL nanoparticles or PBS vehicle i.p. at the doses indicated in the figure legend. Seventy-two hours after injection the mice were bled again for assessment of ALT levels and hAAT expression. hAAT levels were determined via ELISA using serum diluted 1:1 in PBS containing 0.05% casein (PBS-C; 124250; Beantown Chemical), as described previously.^38
(An ELISA detects its analyte on a solid surface through an enzyme-linked reagent.)

Another data set concerns C57BL/6J mice. In words: In vivo toxicity of cationic lipid nanoparticles (ALT, IL-6, SCr, mortality). The following applies: 20 mM lipid, i.p., versus baseline.
The nature of data set [7]: Characterization of nanoparticles (size, zeta potential, DNA encapsulation), Example 2. Type of data set: physicochemical. The conditions noted are these: LNPs made with the cationic lipid. As to the method: The concentration of DNA in LNPs after dialysis was quantified using an AccuClear® Ultra High Sensitivity dsDNA Quantification Kit (Biotium #31027) and quantified on a BioTek Synergy H1 plate reader. Encapsulation efficiencies were determined by comparing the amount of DNA in the LNP solution vs. the DNA solution used to make them, after disrupting the LNPs with 0.5% Cl2E10 (Abcam #ab146563) and adjusting for volume differences (i.e.: excess volume added during dialysis and dilution volume during ethanol mixture).

Where [8] appears, read: nanoparticles of pure lipid (Table 1).
[9] abbreviates: nanoparticles of pure lipid, 1 mM, 25° C. (Table 1).
Where [10] appears, read: zeta potential, nanoparticles of pure lipid (Table 1).
[11] abbreviates: liposomes, lipid:DOPE mixtures, lipoplexes, immunization liposomes (Table 2).
Where [12] appears, read: unstable nanoparticles of lipids 11 and 12, text.

With `CCCCCCCCCCCCN(CCCCCCCCCCCC)c1nc(NCCS)nc(NCCC(=O)O)n1` [Lipid 5], the PDI in data set [1] (setting [8]) is given as 0.40 ± 0.00. Also, the Size in data set [1] (setting [9]) was 87 ± 2 nm. This molecule came in with a Charge in data set [1] (setting [10]) of −73 ± 6 mV. Moreover, in data set [2], the IC50 came out at 679 µM. Further, in data set [3], the Tm is less than 10 °C.
In data set [1] (setting [8]), `CCCCCCCCCCCCCCCCCCN(CCCCCCCCCCCCCCCCCC)c1nc(NCCCN(C)C)nc(NCCCN(C)C)n1` [Lipid 10] gave a PDI of 0.28 ± 0.01. The Size in data set [1] (setting [9]) came to 186 ± 1 nm. This molecule yielded a Charge in [1] (setting [10]) of 47 ± 1 mV. Besides, in data set [2] (LDH release, 24 hours (Table 1), read-out: ID50 (the source's name)), the IC50 came to 261 µM. In addition, the Tm in data set [3] was found to be 28 °C.
On to `CCCCCCCCCCCCCC(=O)OC[C@H](COP(=O)([O-])OCC[N+](C)(C)C)OC(=O)CCCCCCCCCCCCC` [DMPC, 1,2-Dimyristoyl-sn-glycero-3-phosphocholine, reference compound], for which, in [1] (Table 2), the PDI was determined as 0.39 ± 0.01. Further, the Size in [1] (setting [11]) is recorded as 277 ± 45 nm. In data set [1] (zeta potential (Table 2)), the Charge was −9 ± 0.3 mV. For the same molecule, the LD50 in [2] (LDH activity, BMDMs incubated 24 hours, text of Example 3) amounted to 969 µM; in data set [2] (LDH release, 24 hours (Table 2)), 969 µM.
Turning to `CCCCCCCCCCCCCCCCCCN(CCCCCCCCCCCCCCCCCC)c1nc(NCCCN)nc(NCCC(=O)O)n1` [Lipid 12], the PDI result is “Unstable Unstable” in data set [1] (setting [8]) and 0.51 in data set [1] (setting [12]). Further, the Size entry in data set [1] (setting [9]) is given as “Unstable Unstable”. For the same molecule, the Charge in data set [1] (setting [10]) was 70 ± 5 mV. Further, the IC50 in data set [2] amounted to 227 µM. Moreover, the Tm in [3] worked out at 42 °C.
As usually defined, the pKa is the negative logarithm of the acid dissociation constant. A higher pKa goes with a group that holds its proton tightly. Molecule `CCCCCCCCCCCCCCCCCCN(CCCCCCCCCCCCCCCCCC)c1nc(NCCCN)nc(NCCCN)n1` [Lipid 4] showed a PDI in [1] (setting [8]) of 0.28 ± 0.00. This molecule also gave a Size in [1] (setting [9]) of 326 ± 1 nm. The molecule further registered a Charge in data set [1] (setting [10]) of 63 ± 3 mV. The IC50 came to 180 µM in data set [2] and 29 µM with canonical NFKB (THP-1-Blue cells stimulated with TNFα, 24 h lipid treatment). In data set [4], this molecule came in with a pKa of 5.59. For the same molecule, in data set [3], the Tm amounted to 33 °C.
In data set [1] (Table 2), `CCCCCCCC/C=C\CCCCCCCCOCC(C[N+](C)(C)C)OCCCCCCCC/C=C\CCCCCCCC` (stereo not shown) [DOTMA, 1,2-di-O-octadecenyl-3-trimethylammonium propane, reference compound] came in with a PDI of 0.43 ± 0.06. For the same molecule, the Size in data set [1] (setting [11]) is 105 ± 2 nm. This molecule had a Charge in [1] (zeta potential (Table 2)) of 70 ± 4 mV.
Turning to `CCCCCCCCCCCCCCCCCC(=O)OC[C@@H](COP(=O)([O-])OCC[N+](C)(C)C)OC(=O)CCCCCCCCCCCCCCCCC` (stereo in doubt) [DSPC, 1,2-distearoyl-sn-glycero-3-phosphocholine, reference compound], the “increase of anti-hAAT titers” value with BALB/c mice [5] is given as 100 fold.
In data set [1] (setting [8]), `CCCCCCCCCCCCN(CCCCCCCCCCCC)c1nc(NCCC(=O)O)nc(NCCC(=O)O)n1` [Lipid 1] had a PDI of 0.24 ± 0.02. For the same molecule, in data set [1] (setting [9]), the Size was determined as 124 ± 2 nm. The molecule also had a Charge in data set [1] (setting [10]) of −63 ± 4 mV. Further, the IC50 in data set [2] was determined as 1100 µM. For the same molecule, the Tm in data set [3] is less than 10 °C.
Consider `CCCCCCCCCCCCN(CCCCCCCCCCCC)c1nc(NCCCN)nc(NCCC(=O)O)n1` [Lipid 11], for which the figures for the PDI entry in [1] (setting [8]) and in [1] (setting [12]) were “Unstable Unstable” and 0.98, respectively. In addition, in data set [1] (setting [9]), the Size entry is “Unstable Unstable”. Also, the Charge in [1] (setting [10]) is reported as 42 ± 5 mV. In data set [2], the IC50 is 277 µM. Further, in [3], the Tm is less than 10 °C.
In data set [1] (setting [8]), `CCCCCCCCCCCCCCCCCCN(CCCCCCCCCCCCCCCCCC)c1nc(NCCS)nc(NCCC(=O)O)n1` [Lipid 6] came in with a PDI of 0.27 ± 0.01. For the same molecule, the Size in [1] (setting [9]) was found to be 93 ± 2 nm. In data set [1] (setting [10]), this molecule returned a Charge of −71 ± 5 mV. Also, the IC50 in data set [2] came out at 988 µM. Further, in data set [3], the Tm worked out at 40 °C.
As to `CCCCCCCC/C=C\CCCCCCCC(=O)OCC(C[N+](C)(C)C)OC(=O)CCCCCCC/C=C\CCCCCCCC.[Cl-]` (stereo not shown) [DOTAP, 1,2-dioleoyl-3-trimethylammonium propane, reference compound], the “average hAAT levels in serum” value in the data set on BALB/c mice [6] is listed as 3 ng/mL. In the data set on C57BL/6J mice, the “interleukin 6 (IL-6)” value is “neither these nor the IL-6 elevation in DOTAP-treated mice reached statistical significance”. Also, the IC50 in the data set on canonical NFKB (Homo sapiens, 24 h) came to 28 µM. For the same molecule, the “increase of anti-hAAT titers” value in the data set with BALB/c mice [5] amounted to 10 fold. Also, the “anti-hAAT IgG titers” value with BALB/c mice [5] (transgene delivery, 10 μg hAAT DNA, day 14, versus untreated mice) was “significantly higher anti-hAAT titers than untreated mice”. For the same molecule, the “Th1/Th2 response (ratios of IgG2a, 2b, and 3 over IgG1)” value in the data set with BALB/c mice [5] (transgenic hAAT delivery with LPs) was “balanced Th1/Th2 response”. Besides, the “encapsulation of DNA (general)” value in data set [7] is on record as 70-80%.
